Results from patent US10093675B2, “6,8-disubstituted-9-(heterocyclyl)purines, compositions containing these derivatives and their use in cosmetic and medicinal applications” (USTAV EXPERIMENTALNI BOTANIKY AV CR, V.V.I., priority 2014, dated 2018).

What was measured:
[1] = tested on: human diploid fibroblasts (HDF cells; HDF25, HDF45, HDF80); assay: Inhibition of human cell aging: senescent cells by beta-galactosidase staining; assay type: cell-based; conditions: for SENESCENT CELLS (%) HDF25: human diploid fibroblasts passage 25, beta-galactosidase staining; for SENESCENT CELLS (%) HDF45: human diploid fibroblasts passage 45, beta-galactosidase staining; for SENESCENT CELLS (%) HDF80: human diploid fibroblasts passage 80, beta-galactosidase staining
Protocol: In this example, human diploid fibroblasts (HDF cells of various passage levels: passage 25—designated HDF25; passage 45—designated HDF45; passage 80—designated HDF80) were stained for beta-galactosidase activity. The medium used for the cell cultivation was removed the cells were washed twice in […], and fixed in 2-3 ml of fixing solution comprised of a 2% formaldehyde and 0.2% glutaraldehyde in PBS. The cells were incubated at room temperature for 5 minutes, and then washed twice with PBS. The cells were subsequently incubated at 37° C. […] In this experiment, senescent cells, but no other cells were stained blue due to the action of beta-galactosidase on the substrate.

[2] = tested on: C. elegans fem-1(hc17); assay: Lifespan of C. elegans; assay type: in vivo; conditions: 100 microM, treated from 4th day of adulthood; DMSO vehiculum 12.98
Text: C. elegans is a standard model of aging. Its relevance for human aging is generally accepted based primarily on molecular similarity in aging mechanisms and evolutionary conservation of several pathways related to health- and life-span including insulin/IGF-I signaling. (Olsen et. al 2006, doi: 10.1196/annals.1354.015) It is used for drug screening campaigns (reviewed e.g. in Kaletta et al. 2006, doi: 10.1038/nrd2031) including those searching for compounds with cytoprotective activity. Compounds with a life-span extending effect in C. elegans and known health benefits in human include resveratrol, ECG and curcumin (Liao et, al 2011, doi: 10.1016/j.mad.2011.07.008; Wood et al. 2004, doi: 10.1038/nature02789; Abbas et al. 2009, doi: 10.1055/s-0028-1088378). The strain used in this experiment was fem-1(hc17). When grown at 25° C. all animals develop into females which prevents further reproduction and contamination of experiment with progeny. Age-synchronized adults (obtained by sodium hypochlorite treatment) were maintained in liquid S-complete medium. […] Living worms (i.e those moving when exposed to intensive light) were counted in a microscope every 2-3 days until the worms reached 22nd day of adulthood. The effects of the compounds on worm life-span were evaluated in software OASIS (Yang et al 2011, doi: 10.1371/journal.pone.002352).

[3] = Radical scavenging activity determined by ORAC (Oxygen Radical Absorbance Capacity); assay type: biochemical; conditions: Mean ± SD (n = 3); net area under the curve relative to trolox, equimolar basis
Protocol: The ability of compounds to scavenge free radicals in vitro was determined by Oxygen Radical Absorbance Capacity (ORAC) method. Fluorescein (100 μL, […]) and 25 μL of compound solution were added into each working well in a 96-well microplate preincubated at 37° C. Thereafter, 25 μL of 250 mM AAPH was quickly added, microplate was shaken for 5 s and the fluorescence (Ex. 485 nm, Em. 510 nm) was read every 3 min over 90 min by using microplate reader Infinite 200 (TECAN, Switzerland). The net area under the curve was used to express antioxidant activity relative to trolox which was used as a standard.

[4] = tested on: detached leaves of Triticum aestivum cv. Hereward; assay: Membrane lipid peroxidation (MDA, TBA method) in detached wheat leaves during dark senescence; assay type: in vivo; conditions: four days in the dark, Control 18.9 (±2.2)
Protocol: A typical symptom associated with senescence as a direct consequence of increased reactive oxygen species is lipid peroxidation. Therefore the levels of MDA, a decomposition product of lipid peroxidation, were measured in detached wheat leaves that were exposed to the prepared novel derivatives and kinetin for four days in the dark as described in Example 8. MDA levels were measured using a thiobarbituric acid (TBA) method. In detail, 100 mg of fresh plant material was homogenized by high speed shaking in a ball mill (MM301, Retsch, Germany) with 1 mL of 80% methanol. The crude extract was centrifuged at 10,000×g for 5 min, and 100 μL aliquot of supernatant was vortexed with 100 μL of 0.5% (w/v) TBA containing 0.1% (w/v) trichloroacetic acid, and the resulting solution was then incubated for 30 min at 95° C. The samples were quickly cooled on ice and recentrifuged for 5 min at 1000×g. The absorbance of supernatant was measured at 532 nm with background subtraction at 600 nm and the amount of MDA-TBA complex was calculated from the coefficient of absorbance 155 mM^−1cm^−1.
Seeds of winter wheat, Triticum aestivum cv. Hereward, were washed under running water for 24 hours and then sown on vermiculite soaked with Knop's solution. They were placed in the grown chamber at 25° C. with a 16/8 hours light period at […]. After 7 days, the first leaf was fully developed and the second leaf had started to grow. A tip section of the first leaf, approximately 35 mm long, was removed from 5 seedlings and trimmed slightly to a combined weight of 100 mg. The basal ends of the five leaf tips were placed in the wells of a microtiter polystyrene plate containing […] of a cytokinin solution each. The entire plate was inserted into a plastic box lined with paper tissues soaked in distilled water to prevent leaf sections from drying out. After 96 hours incubation in the dark at 25° C., the leaves were removed and chlorophyll extracted by heating at 80 C for 10 min in 5 ml of 80% ethanol (v/v). The sample volume was then restored to 5 ml by the addition of 80% ethanol (v/v). The absorbance of the extract was recorded at 665 nm. In addition, chlorophyll extracts from fresh leaves and leaf tips incubated in deionized water were measured. From the obtained data, the concentration with highest activity was selected for each compound tested. Relative activity of the compound at this concentration was calculated (see Table 6 below). The activity obtained for 10^−4 M kinetin (Kin) was set as 100%. The values shown are means of five replicates and the whole experiment was repeated twice.

Row | SMILES | SENESCENT CELLS (%) HDF25 [1] [%] | SENESCENT CELLS (%) HDF45 [1] [%] | SENESCENT CELLS (%) HDF80 [1] [%] | restricted mean of life-span [2] | ORAC (compound/trolox ratio) [3] | MDA (nmol/g FW) [4]
1 | c1ccc(CNc2ncnc3nc[nH]c23)cc1 [6-benzylaminopurine, reference compound] | 5 | 9 | 45 | 12.95 |  | 
2 | Ic1nc2c(NCc3ccccc3)ncnc2n1C1CCCCO1 (centres unmarked) [Compound 46, 8-Iodo-6-benzylamino-9-(tetrahydropyran-2-yl)-9H-purine] |  |  |  |  | 1.4 ± 0.0 | 10.9 (±1.0) nmol/g FW
3 | CN(C)c1nc2c(NCc3ccco3)ncnc2n1C1CCCCO1 (centres unmarked) [Compound 80, 6-Furfurylamino-8-dimethylamino-9-(tetrahydropyran-2-yl)-9H-purine] |  |  |  |  | 2.2 ± 0.1 | 11.3 (±0.9) nmol/g FW
4 | C=CCNc1nc2c(NCc3ccco3)ncnc2n1C1CCCCO1 (centres unmarked) [Compound 100, 8-Allylamino-6-furfurylamino-9-(tetrahydropyran-2-yl)-9H-purine] |  |  |  |  | 32.4 ± 3.2 | 10.2 (±1.1) nmol/g FW
5 | Nc1nc2c(NCc3ccco3)ncnc2n1C1CCCCO1 (centres unmarked) [Compound 102, 6-furfurylamino-8-amino-9-(tetrahydropyran-2-yl)-9H-purine] |  |  |  |  | 4.5 ± 0.1 | 10.4 (±0.9) nmol/g FW
6 | CC(C)=CCNc1nc(Cl)nc2c1nc(N)n2C1CCCCO1 (centres unmarked) [Compound 107, 8-Amino-6-(3-methylbut-2-en-1-ylamino)-chloro-9-(tetrahydropyran-2-yl)-9H-purine] |  |  |  |  | 24.4 ± 1.5 | 10.5 (±0.5) nmol/g FW
7 | NCCNc1nc2c(NCc3ccco3)ncnc2n1C1CCCCO1 (centres unmarked) [Compound 170, 8-(2-Aminoethylamino)-6-furfurylamino-9-(tetrahydropyran-2-yl)-9H-purine] |  |  |  |  | 181.3 ± 5.2 | 10.4 (±0.7) nmol/g FW
8 | CC(C)=CCNc1ncnc2c1nc(NCCN)n2C1CCCCO1 (centres unmarked) [Compound 172, 8-(2-Aminoethylamino)-6-(3-methylbut-2-en-1-ylamino)-9-(tetrahydropyran-2-yl)-9H-purine] |  |  |  |  | 28.3 ± 1.6 | 10.8 (±0.9) nmol/g FW
9 | OCCNc1nc2c(NCc3ccco3)ncnc2n1C1CCCCO1 (centres unmarked) [Compound 181, 6-Furfurylamino-8-(2-hydroxyethylamino)-9-(tetrahydropyran-2-yl)-9H-purine] |  |  |  |  | 78.1 ± 3.9 | 9.5 (±0.5) nmol/g FW
10 | OCCCNc1nc2c(NCc3ccco3)ncnc2n1C1CCCCO1 (centres unmarked) [Compound 185, 6-Furfurylamino-8-(3-hydroxypropylamino)-9-(tetrahydropyran-2-yl)-9H-purine] |  |  |  |  | 48.3 ± 2.3 | 10.2 (±1.1) nmol/g FW
11 | c1coc(CNc2ncnc3c2ncn3C2CCCCO2)c1 (centres unmarked) [KTHP, kinetin-9-tetrahydropyranyl, reference compound] | 3 | 4 | 26 |  | 0.6 ± 0.1 | 
